Laboratory results reported in patent publication US20220362249A1, “METHODS FOR TREATING […]” (PTC Therapeutics MP, Inc., priority 2019, published 2022).
Where two headings read alike, the source gives them in different places.

What was measured:
[1] = Pharmacokinetic analysis of multiple doses of sepiapterin (once daily for 7 days, fed subjects); assay type: in vivo, human
Excerpt: Methods: Three cohorts of eight fed subjects each were randomized to receive once-daily sepiapterin or placebo for 7 days in a 6:2 ratio. A sentinel dose strategy was also used for administration of the highest sepiapterin dose.

[2] = Food effect on administration of sepiapterin: plasma sepiapterin and BH4 concentrations, fasted vs fed; assay type: in vivo, human; conditions: sepiapterin 10 mg/kg oral; for concentration at 0 h / concentration at 0.5 h / concentration at 1 h / concentration at 2 h / concentration at 4 h / concentration at 8 h / concentration at 12 h / concentration at 24 h: human, oral, 10 mg/kg; for concentration at 0 h: 0 h (predose)
Description: Method: Subjects received 2 oral doses of sepiapterin (10 mg/kg) separated by 1 week in a fasted and fed state. Subjects were fed a standard high-fat (approximately 50 percent of total caloric content of the meal) and high-calorie (approximately 800 to 1000 calories) meal starting 30 minutes prior to receiving their second oral dose of sepiapterin on Day 8.
Sampling for PK analysis occurred predose on Days 1 and 8 (within 30 minutes before dosing) and 0.5 hr, 1 hr, 2 hr, 4 hr, 8 hr, 12 hr, and 24 hr after the doses on Days 1 and 8. The blood concentrations of sepiapterin and BH4 were analyzed by MNG Labs.

[3] = plasma, fasted, read-out: Concentration in Plasma, Maximum
[4] = plasma, fasted, read-out: Concentration in Plasma, Mean
[5] = plasma, fasted, read-out: Concentration in Plasma, Median
[6] = plasma, fasted, read-out: Concentration in Plasma, Minimum
[7] = plasma, fed (high-fat meal), read-out: Concentration in Plasma, Maximum
[8] = plasma, fed (high-fat meal), read-out: Concentration in Plasma, Mean
[9] = plasma, fed (high-fat meal), read-out: Concentration in Plasma, Median
[10] = plasma, fed (high-fat meal), read-out: Concentration in Plasma, Minimum

Q: Which Cmax ([1]; Day 1, sepiapterin 20 mg/kg once daily, fed) does the source give for C[C@H](O)C(=O)C1=Nc2c(nc(N)[nH]c2=O)NC1 [sepiapterin, Sepiapterin] here?
A: The Cmax was 1.2 ng/mL.

Q: And the AUC0-24 ([1]; Day 7, sepiapterin 60 mg/kg once daily, fed)?
A: Its AUC0-24 is 23 ng·h/mL.

Q: What about the “Drug accumulation after 1 and 7 days of treatment (in words)” value ([1]; once-daily sepiapterin for 7 days) of the same compound?
A: Its value is “no drug accumulation”.

Q: And the concentration at 0 h [2, 3]?
A: The concentration at 0 h was 0 nM.

Q: And the concentration at 0 h [2, 4]?
A: Its concentration at 0 h is 0 nM.

Q: And the concentration at 0 h [2, 5]?
A: Its concentration at 0 h is 0 nM.

Q: And the concentration at 0 h [2, 6]?
A: The concentration at 0 h was 0 nM.

Q: And the concentration at 0.5 h [2, 3]?
A: Its concentration at 0.5 h is 7.23 nM.

Q: What about the concentration at 0.5 h [2, 4] of the same compound?
A: Its concentration at 0.5 h is 2.85 nM.

Q: And the concentration at 0.5 h [2, 5]?
A: The concentration at 0.5 h was 2.32 nM.

Q: What about the concentration at 0.5 h [2, 6] of the same compound?
A: Its concentration at 0.5 h is 0 nM.

Q: What about the concentration at 1 h [2, 3] of the same compound?
A: The concentration at 1 h was 10.2 nM.

Q: And the concentration at 1 h [2, 4]?
A: The concentration at 1 h was 5.43 nM.

Q: What about the concentration at 1 h [2, 5] of the same compound?
A: The concentration at 1 h was 4.82 nM.

Q: And the concentration at 1 h [2, 6]?
A: The concentration at 1 h was 3.15 nM.

Q: What about the concentration at 2 h [2, 3] of the same compound?
A: The concentration at 2 h was 6.65 nM.

Q: And the concentration at 2 h [2, 4]?
A: Its concentration at 2 h is 4.63 nM.

Q: What about the concentration at 2 h [2, 5] of the same compound?
A: The concentration at 2 h was 4.71 nM.

Q: And the concentration at 2 h [2, 6]?
A: The concentration at 2 h was 2.52 nM.

Q: What about the concentration at 4 h [2, 3] of the same compound?
A: Its concentration at 4 h is 3.93 nM.

Q: And the concentration at 4 h [2, 4]?
A: The concentration at 4 h was 1.88 nM.

Q: What about the concentration at 4 h [2, 5] of the same compound?
A: Its concentration at 4 h is 2.37 nM.

Q: What about the concentration at 4 h [2, 6] of the same compound?
A: The concentration at 4 h was 0 nM.

Q: And the concentration at 8 h [2, 3]?
A: Its concentration at 8 h is 0 nM.

Q: And the concentration at 8 h [2, 4]?
A: Its concentration at 8 h is 0 nM.

Q: What about the concentration at 8 h [2, 5] of the same compound?
A: Its concentration at 8 h is 0 nM.

Q: And the concentration at 8 h [2, 6]?
A: Its concentration at 8 h is 0 nM.

Q: What about the concentration at 12 h [2, 3] of the same compound?
A: The concentration at 12 h was 0 nM.

Q: What about the concentration at 12 h [2, 4] of the same compound?
A: Its concentration at 12 h is 0 nM.

Q: What about the concentration at 12 h [2, 5] of the same compound?
A: The concentration at 12 h was 0 nM.

Q: What about the concentration at 12 h [2, 6] of the same compound?
A: Its concentration at 12 h is 0 nM.

Q: What about the concentration at 24 h [2, 3] of the same compound?
A: The concentration at 24 h was 0 nM.

Q: And the concentration at 24 h [2, 4]?
A: Its concentration at 24 h is 0 nM.

Q: And the concentration at 24 h [2, 5]?
A: Its concentration at 24 h is 0 nM.

Q: What about the concentration at 24 h [2, 6] of the same compound?
A: Its concentration at 24 h is 0 nM.

Q: What about the concentration at 0 h [2, 7] of the same compound?
A: The concentration at 0 h was 0 nM.

Q: What about the concentration at 0 h [2, 8] of the same compound?
A: The concentration at 0 h was 0 nM.

Q: What about the concentration at 0 h [2, 9] of the same compound?
A: The concentration at 0 h was 0 nM.

Q: What about the concentration at 0 h [2, 10] of the same compound?
A: The concentration at 0 h was 0 nM.

Q: And the concentration at 0.5 h [2, 7]?
A: The concentration at 0.5 h was 3.22 nM.

Q: What about the concentration at 0.5 h [2, 8] of the same compound?
A: The concentration at 0.5 h was 0.63 nM.

Q: And the concentration at 0.5 h [2, 9]?
A: The concentration at 0.5 h was 0 nM.

Q: And the concentration at 0.5 h [2, 10]?
A: Its concentration at 0.5 h is 0 nM.

Q: What about the concentration at 1 h [2, 7] of the same compound?
A: Its concentration at 1 h is 4.57 nM.

Q: And the concentration at 1 h [2, 8]?
A: The concentration at 1 h was 2.38 nM.

Q: And the concentration at 1 h [2, 9]?
A: Its concentration at 1 h is 2.42 nM.

Q: And the concentration at 1 h [2, 10]?
A: The concentration at 1 h was 0 nM.

Q: What about the concentration at 2 h [2, 7] of the same compound?
A: Its concentration at 2 h is 5.92 nM.

Q: What about the concentration at 2 h [2, 8] of the same compound?
A: Its concentration at 2 h is 2.96 nM.

Q: What about the concentration at 2 h [2, 9] of the same compound?
A: Its concentration at 2 h is 2.91 nM.

Q: What about the concentration at 2 h [2, 10] of the same compound?
A: Its concentration at 2 h is 0 nM.

Q: What about the concentration at 4 h [2, 7] of the same compound?
A: Its concentration at 4 h is 5.56 nM.

Q: What about the concentration at 4 h [2, 8] of the same compound?
A: The concentration at 4 h was 2.96 nM.

Q: And the concentration at 4 h [2, 9]?
A: Its concentration at 4 h is 2.5 nM.

Q: And the concentration at 4 h [2, 10]?
A: Its concentration at 4 h is 0 nM.

Q: What about the concentration at 8 h [2, 7] of the same compound?
A: The concentration at 8 h was 2.19 nM.

Q: And the concentration at 8 h [2, 8]?
A: Its concentration at 8 h is 0.18 nM.

Q: And the concentration at 8 h [2, 9]?
A: Its concentration at 8 h is 0 nM.

Q: And the concentration at 8 h [2, 10]?
A: Its concentration at 8 h is 0 nM.

Q: What about the concentration at 12 h [2, 7] of the same compound?
A: Its concentration at 12 h is 0 nM.

Q: And the concentration at 12 h [2, 8]?
A: The concentration at 12 h was 0 nM.

Q: What about the concentration at 12 h [2, 9] of the same compound?
A: The concentration at 12 h was 0 nM.

Q: And the concentration at 12 h [2, 10]?
A: The concentration at 12 h was 0 nM.

Q: What about the concentration at 24 h [2, 7] of the same compound?
A: Its concentration at 24 h is 0 nM.

Q: What about the concentration at 24 h [2, 8] of the same compound?
A: The concentration at 24 h was 0 nM.

Q: What about the concentration at 24 h [2, 9] of the same compound?
A: The concentration at 24 h was 0 nM.

Q: What about the concentration at 24 h [2, 10] of the same compound?
A: The concentration at 24 h was 0 nM.

Q: What about the “Geometric mean ratio (fasted/fed, 90% CI) for AUClast” value ([2]; plasma) of the same compound?
A: The value was 1.29 (0.84 to 2.00).

Q: And the “Geometric mean ratio (fasted/fed, 90% CI) for Cmax” value ([2]; plasma)?
A: Its value is 1.57 (1.21 to 2.0).

Q: What about the “Cmax in the plasma, fed compared to fasted subjects (in words)” value [2] of the same compound?
A: The value was “much lower”.
